The experiment relates to CD55 mRNA expression. The experiment in a line: Hypoxia-induced CD55 mRNA expression in Caco2 cells with transcriptional inhibitor. In kind it is cell-based, human. The conditions noted are these: DRB 10 μM. Here is the method: First, it was determined whether hypoxia-induced CD55 results from increased transcriptional activity. Caco2 cells were subjected to hypoxia in the presence or absence of the transcriptional inhibitor 5,6-dichlorobenzimidazole riboside (DRB, 10 μM) and assessed for changes in CD55 mRNA expression. […] Consequently, increases in CD55 by hypoxia required new mRNA synthesis.

`OC[C@H]1O[C@@H](n2cnc3cc(Cl)c(Cl)cc32)[C@H](O)[C@@H]1O` [DRB, 5,6-dichlorobenzimidazole riboside]: the “decrease in CD55 inducibility by hypoxia” value worked out at 87±7%.

These data come from US20050169914A1, “Novel functions for decay accelerating factor (DAF) in inflammation” (priority 2003, published 2005).
